Assay results from patent US20020082180A1, “Fabric cleaning system” (Unilever Home & Personal Care USA, Division of Conopco, Inc., priority 2000, published 2002).

Experiment: log P, partitioning coefficient of the fluorescer between octanol and water
Format: physicochemical
Settings: octanol/water at ambient temperature
Excerpt: We have found the fluorescers of the present invention to be very effective when used with carbon dioxide whilst the fluorescers are readily soluble in carbon dioxide without the need for surfactants. A preferable selection of fluorescers can be described by their log P value. Log P being the partitioning coefficient of the fluorescer between octanol and water at ambient temperature, whereby P is the concentration of the fluorescer in octanol divided by the concentration of fluorescer in water. (Leo et al. Chem Rev 1971, 71, 525). If appropriate, the log P is determined in the presence of sodium and/or chloride as counterions. Accordingly, a preferred group of fluorescer has a log P of at least 2, more preferably at least 2.5. In many cases, the log P may also be estimated using specially designed programs, also described as clog P or calculated log P. However, if in certain cases these programs are inappropriate, the real log P should be measured.

log P: > 2.5
SMILES: c1ccc2oc(-c3ccc(-c4nc5ccccc5o4)s3)nc2c1 [Tinopal™ SOP]
